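Where inhibition never reached the appropriate level, the endpoint shown equals the highest concentration tested. Otherwise, values were interpolated linearly from a five-concentration, 48-hour dose response in 96-well plates. Here, GI50 denotes the concentration required for 50% inhibition of growth.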 The source made the active and inactive calls. Cut-off read from the data, not from the text of the source: active = GI50 up to about 1.1 µM and inactive = higher.

The source of these data is ChEMBL document CHEMBL1201862, “PubChem BioAssay data set” (2004).

Among the test systems are A549; CCRF-CEM; COLO 205; EKVX; K562; KM12; LOX IMVI; MOLT-4; NCI-H23; NCI-H460; NCI-H522; RPMI-8226; SF-268; SF-539; SK-OV-3; SNB-75; SW-620; U-251; UACC-257; HCT-116.
Assay in all cases: NCI anticancer screen, dose series, 48 h

As for `BrC(/C=N/Nc1nnc(-c2ccccc2)c(-c2ccccc2)n1)C(Br)c1ccccc1` (stereo unspecified), the GI50 is 29.3 µM (inactive) in the experiment with A549; 24.9 µM (inactive) in the experiment on CCRF-CEM; 33.2 µM (inactive) with COLO 205; 29.9 µM (inactive) in the experiment with EKVX; 22.6 µM (inactive) in the experiment on K562; 32.9 µM (inactive) in the experiment with KM12. Also, the GI50 in the experiment on LOX IMVI was 41.5 µM (inactive); in the experiment with MOLT-4 it was 17.7 µM (inactive); in the experiment with NCI-H23, 22.2 µM (inactive); in the experiment with NCI-H460, 35.2 µM (inactive); with NCI-H522 it was 14.5 µM (inactive); in the experiment on RPMI-8226 it was 14.4 µM (inactive). The GI50 in the experiment with SF-268 was 29.2 µM (inactive); with SF-539, 28.4 µM (inactive); in the experiment with SK-OV-3 it was 82.4 µM (inactive); with SNB-75, 22.2 µM (inactive); with SW-620 it was 37.8 µM (inactive); with U-251, 28.2 µM (inactive). Also, the GI50 in the experiment on UACC-257 was 14.1 µM (inactive).

On to `COc1ccc(C(=C2C=CC=C2)c2ccc(OC)cc2)cc1`, for which the GI50 in the experiment on A549 was 44.9 µM (inactive); in the experiment with CCRF-CEM, 21.9 µM (inactive); with COLO 205, 23.7 µM (inactive); with EKVX, 41 µM (inactive); with HCT-116, 26.4 µM (inactive); in the experiment with K562, 22.2 µM (inactive). Also, the GI50 was 45.9 µM (inactive) in the experiment with KM12; 17.2 µM (inactive) with LOX IMVI; 14.5 µM (inactive) in the experiment with MOLT-4; 34.2 µM (inactive) with NCI-H23; 32 µM (inactive) in the experiment with NCI-H460; 19.3 µM (inactive) with NCI-H522. Moreover, the GI50 in the experiment with RPMI-8226 is 0.783 µM (active); with SF-268, 55.7 µM (inactive); in the experiment with SF-539, 10.8 µM (inactive); with SK-OV-3 it was 18.2 µM (inactive); in the experiment with SNB-75, 59 µM (inactive); in the experiment with SW-620 it was 32.6 µM (inactive). Further, the GI50 with U-251 is 27.7 µM (inactive); with UACC-257, 34.4 µM (inactive).

As for `CC12CCC(C(=O)OC1=O)C(C)(C)O2` (stereo unspecified), the GI50 with A549, with CCRF-CEM, in the experiment with COLO 205, in the experiment with EKVX, in the experiment on HCT-116 and in the experiment on K562 was > 100 µM (inactive) in each case. Also, the GI50 in the experiment with KM12, in the experiment on LOX IMVI, with MOLT-4, in the experiment on NCI-H23, with NCI-H460 and in the experiment with NCI-H522 was > 100 µM (inactive) each time. For the same compound, the GI50 in the experiment with RPMI-8226, with SF-268, in the experiment on SF-539, in the experiment on SK-OV-3, in the experiment on SNB-75 and in the experiment on SW-620 was > 100 µM (inactive) throughout. Moreover, the GI50 in the experiment with U-251 and in the experiment on UACC-257 was > 100 µM (inactive) in each case.

As for `C=CC(OC(=O)C(C)C)c1ccc(OC(=O)C(C)C)cc1` (stereo unspecified), the GI50 with A549 was 19.5 µM (inactive); in the experiment on CCRF-CEM it was 3.24 µM (inactive); in the experiment with COLO 205 it was 8.87 µM (inactive); with EKVX, 22.4 µM (inactive); in the experiment on HCT-116, 4.06 µM (inactive); with K562, 7.96 µM (inactive). Moreover, the GI50 with KM12 is 2.21 µM (inactive); with LOX IMVI, 4.47 µM (inactive); in the experiment with MOLT-4, 6.93 µM (inactive); in the experiment with NCI-H23 it was 20 µM (inactive); with NCI-H460, 13.9 µM (inactive); with NCI-H522, 1.73 µM (inactive). For the same compound, the GI50 with RPMI-8226 is 2.04 µM (inactive); with SF-268 it was 26.2 µM (inactive); in the experiment with SF-539, 17 µM (inactive); in the experiment on SK-OV-3, 19.8 µM (inactive); in the experiment on SNB-75, 15 µM (inactive); in the experiment with SW-620, 4.06 µM (inactive). The GI50 with U-251 is 4.33 µM (inactive); with UACC-257 it was 14.7 µM (inactive).

`COC1=C(C)C(=O)C2=C(C1=O)[C@@H]1[C@@H]3Cc4c(OC(=O)CO)c(C)c(OC)c(O)c4[C@H](CNC(=O)C(C)=O)N3[C@@H](C#N)[C@H](C2)N1C`: the GI50 in the experiment on A549 is 0.366 µM (active); with CCRF-CEM, 0.0271 µM (active); in the experiment with COLO 205, < 0.0155 µM (active); in the experiment on EKVX, < 0.0405 µM (active); in the experiment on HCT-116 it was 0.0573 µM (active); with K562, < 0.01 µM (active). Moreover, the GI50 in the experiment with KM12 was 0.108 µM (active); in the experiment on LOX IMVI, < 0.01 µM (active); in the experiment on MOLT-4, 0.0286 µM (active); in the experiment with NCI-H23, < 0.011 µM (active); in the experiment on NCI-H460 it was 0.107 µM (active); in the experiment on NCI-H522, < 0.01 µM (active). The GI50 with RPMI-8226 is < 0.0142 µM (active); with SF-268, 0.0552 µM (active); in the experiment on SF-539, 0.0528 µM (active); in the experiment on SK-OV-3, 0.415 µM (active); with SNB-75, < 0.0353 µM (active); in the experiment with SW-620, < 0.0164 µM (active). Also, the GI50 with U-251 was 0.029 µM (active); in the experiment with UACC-257 it was < 0.0152 µM (active).

On to `CCOC(=O)C1(C(C)=O)OC(=O)c2cnccc21` (stereo unspecified), for which the GI50 with A549, in the experiment on CCRF-CEM, in the experiment with COLO 205, in the experiment with EKVX, in the experiment on HCT-116 and in the experiment on K562 was > 100 µM (inactive) in each case. Further, the GI50 in the experiment with KM12, with LOX IMVI, with MOLT-4, in the experiment on NCI-H23, in the experiment on NCI-H460 and in the experiment with NCI-H522 was > 100 µM (inactive) in each case. In addition, the GI50 with RPMI-8226, with SF-268, in the experiment on SF-539, in the experiment with SK-OV-3, with SNB-75 and in the experiment on SW-620 was > 100 µM (inactive) throughout. The GI50 in the experiment on U-251 and in the experiment on UACC-257 was > 100 µM (inactive) throughout.

Turning to `CC[N+]1(C)CCC(O)(c2ccccc2)C(C(=O)c2ccccc2)C1` (stereo unspecified), the GI50 was 16 µM (inactive) with A549; 2.04 µM (inactive) in the experiment on CCRF-CEM; 9.38 µM (inactive) in the experiment on COLO 205; 21.1 µM (inactive) in the experiment on EKVX; 13.6 µM (inactive) with HCT-116; 2.11 µM (inactive) in the experiment on K562. Besides, the GI50 in the experiment with KM12 is 19.2 µM (inactive); in the experiment with LOX IMVI, 15.4 µM (inactive); in the experiment on MOLT-4 it was 3.04 µM (inactive); in the experiment with NCI-H23, 20.8 µM (inactive); with NCI-H460, 21.7 µM (inactive); in the experiment with NCI-H522, 1.75 µM (inactive). In addition, the GI50 in the experiment on RPMI-8226 was 2 µM (inactive); in the experiment with SF-268, 23.6 µM (inactive); in the experiment on SF-539, 16.7 µM (inactive); with SK-OV-3 it was 17.3 µM (inactive); with SNB-75 it was 12.6 µM (inactive); in the experiment on SW-620, 2.12 µM (inactive). In addition, the values for the GI50 in the experiment on U-251 and in the experiment on UACC-257 were 20.6 µM (inactive) and 17.5 µM (inactive), respectively.

With `C[C@H](N)C(=O)N[C@@H]1[C@H]2C(=C(O)C[C@@H](O)[C@@H]2O)C(=O)O[C@@H]1C`, the GI50 was > 100 µM (inactive) in the experiment with A549; > 53.8 µM (inactive) in the experiment on CCRF-CEM; > 100 µM (inactive) in the experiment with COLO 205; > 100 µM (inactive) with EKVX; > 100 µM (inactive) in the experiment on HCT-116; > 100 µM (inactive) with K562. Also, the GI50 in the experiment on KM12, in the experiment with LOX IMVI, in the experiment with MOLT-4, with NCI-H23, in the experiment with NCI-H460 and in the experiment with NCI-H522 was > 100 µM (inactive) in each case. Also, the GI50 in the experiment on RPMI-8226, in the experiment on SF-268, with SF-539, in the experiment on SK-OV-3, in the experiment with SNB-75 and with SW-620 was > 100 µM (inactive) in each case. Also, the GI50 with U-251 and with UACC-257 was > 100 µM (inactive) in each case.

For `CC1[C@@]2(O[C@@H]3C=C4C5CCC6Cc7nc8c(nc7C[C@@]6(C)C5C[C@H](O)[C@@]4(C)[C@]13O)CC1CCc3c(cc4c5c3C(O)C[C@H]5[C@@H](C)C3(O4)OC(C)(C)CC3O)[C@]1(C)C8)O[C@@](C)(CO)C[C@@H]2O` (stereo partly specified), the GI50 was 0.167 µM (active) in the experiment with A549; 0.164 µM (active) with CCRF-CEM; 0.57 µM (active) in the experiment with COLO 205; 0.146 µM (active) in the experiment on EKVX; 0.558 µM (active) in the experiment with HCT-116; 0.259 µM (active) in the experiment on K562. The GI50 in the experiment on KM12 is 1.29 µM (inactive); in the experiment on LOX IMVI it was 0.23 µM (active); with NCI-H460, 0.126 µM (active); in the experiment on NCI-H522 it was 0.745 µM (active); in the experiment on RPMI-8226 it was 0.0604 µM (active); with SF-268, 0.191 µM (active). In addition, the GI50 with SF-539 is 0.173 µM (active); in the experiment on SK-OV-3, 0.187 µM (active); in the experiment with SNB-75 it was 0.0182 µM (active); with SW-620, 0.49 µM (active); in the experiment on U-251, 0.0759 µM (active); in the experiment on UACC-257 it was 1.3 µM (inactive).

Regarding `Oc1cc2cc(O)nc(O)c2c(O)n1`, the GI50 in the experiment with A549, with CCRF-CEM, in the experiment on COLO 205, in the experiment on HCT-116, in the experiment with K562 and with KM12 was > 100 µM (inactive) throughout. Also, the GI50 in the experiment with LOX IMVI, in the experiment with MOLT-4, in the experiment on NCI-H23, in the experiment with NCI-H460, with NCI-H522 and with RPMI-8226 was > 100 µM (inactive) throughout. For the same compound, the GI50 in the experiment with SF-268, in the experiment with SF-539, in the experiment on SK-OV-3, with SNB-75, with SW-620 and in the experiment with U-251 was > 100 µM (inactive) each time. In addition, in the experiment with UACC-257, the GI50 is > 100 µM (inactive).
